# Reference: the supplement of paper PMC10307832
# Tests used:
# Assay in all cases: relative viability (nuclei count vs DMSO), 5 days (fraction); higher = more cells survive
# 201T = test system: 201T
# Summary of the method: (§1)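 Relative viability equals treated-well nuclei counts divided by vehicle-well nuclei counts. Counts came from 4× images of lung cancer cell lines grown in 1536-well plates for 5 days after pin-tool dosing on the day after seeding. Dosing used one drug alone or a fixed anchor-drug dose plus five library-drug doses (not always all listed) in √10 steps, and values are medians of duplicate plates.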
# A-427 = test system: A-427
# Summary of the method: as §1
# BEN = test system: BEN
# Summary of the method: as §1
# COR-L 105 = test system: COR-L 105
# Summary of the method: as §1
# COR-L23 = test system: COR-L23
# Summary of the method: as §1
# EKVX = test system: EKVX
# Summary of the method: as §1
# EMC-BAC-2 = test system: EMC-BAC-2
# Summary of the method: as §1
# HCC-15 = test system: HCC-15
# Summary of the method: as §1
# HOP-62 = test system: HOP-62
# Summary of the method: as §1
# LK-2 = test system: LK-2
# Summary of the method: as §1
# NCI-H1563 = test system: NCI-H1563
# Summary of the method: as §1
# NCI-H1734 = test system: NCI-H1734
# Summary of the method: as §1
# NCI-H1915 = test system: NCI-H1915
# Summary of the method: as §1
# NCI-H1993 = test system: NCI-H1993
# Summary of the method: as §1
# NCI-H2405 = test system: NCI-H2405
# Summary of the method: as §1
# NCI-H460 = test system: NCI-H460
# Summary of the method: as §1
# NCI-H522 = test system: NCI-H522
# Summary of the method: as §1
# NCI-H647 = test system: NCI-H647
# Summary of the method: as §1
# NCI-H661 = test system: NCI-H661
# Summary of the method: as §1
# PC-14 = test system: PC-14
# Summary of the method: as §1
# SK-MES-1 = test system: SK-MES-1
# Summary of the method: as §1
compound,measurement,setting,value
Cc1cn(-c2cc(NC(=O)c3ccc(C)c(Nc4nccc(-c5cccnc5)n4)c3)cc(C(F)(F)F)c2)cn1 [Nilotinib] + CCNC(=O)c1noc(-c2cc(C(C)C)c(O)cc2O)c1-c1ccc(CN2CCOCC2)cc1 [Luminespib] (partner 0.01 µM),relative viability,201T; first compound 0.003162 µM,1.13
same,relative viability,201T; first compound 0.01 µM,1.16
same,relative viability,201T; first compound 0.03162 µM,1.11
same,relative viability,201T; first compound 0.1 µM,1.03
same,relative viability,A-427; first compound 0.001 µM,0.98
same,relative viability,A-427; first compound 0.003162 µM,0.948
same,relative viability,A-427; first compound 0.03162 µM,0.724
same,relative viability,A-427; first compound 0.1 µM,0.336
same,relative viability,BEN; first compound 0.001 µM,0.563
same,relative viability,BEN; first compound 0.003162 µM,0.275
same,relative viability,BEN; first compound 0.01 µM,0.378
same,relative viability,BEN; first compound 0.03162 µM,0.277
same,relative viability,BEN; first compound 0.1 µM,0.256
same,relative viability,COR-L 105; first compound 0.001 µM,0.764
same,relative viability,COR-L 105; first compound 0.003162 µM,0.711
same,relative viability,COR-L 105; first compound 0.01 µM,0.75
same,relative viability,COR-L 105; first compound 0.03162 µM,0.698
same,relative viability,COR-L 105; first compound 0.1 µM,0.853
same,relative viability,COR-L23; first compound 0.001 µM,0.478
same,relative viability,COR-L23; first compound 0.003162 µM,0.557
same,relative viability,COR-L23; first compound 0.01 µM,0.883
same,relative viability,COR-L23; first compound 0.03162 µM,0.507
same,relative viability,COR-L23; first compound 0.1 µM,0.535
same,relative viability,EKVX; first compound 0.001 µM,0.839
same,relative viability,EKVX; first compound 0.003162 µM,0.959
same,relative viability,EKVX; first compound 0.01 µM,1.09
same,relative viability,EKVX; first compound 0.03162 µM,0.88
same,relative viability,EKVX; first compound 0.1 µM,0.955
same,relative viability,EMC-BAC-2; first compound 0.001 µM,1.09
same,relative viability,EMC-BAC-2; first compound 0.003162 µM,1.36
same,relative viability,EMC-BAC-2; first compound 0.01 µM,1.22
same,relative viability,EMC-BAC-2; first compound 0.03162 µM,1.01
same,relative viability,EMC-BAC-2; first compound 0.1 µM,1.11
same,relative viability,HCC-15; first compound 0.001 µM,0.241
same,relative viability,HCC-15; first compound 0.003162 µM,0.431
same,relative viability,HCC-15; first compound 0.01 µM,0.486
same,relative viability,HCC-15; first compound 0.03162 µM,0.219
same,relative viability,HCC-15; first compound 0.1 µM,0.325
same,relative viability,HOP-62; first compound 0.001 µM,0.727
same,relative viability,HOP-62; first compound 0.003162 µM,0.792
same,relative viability,HOP-62; first compound 0.01 µM,0.839
same,relative viability,HOP-62; first compound 0.03162 µM,0.786
same,relative viability,HOP-62; first compound 0.1 µM,0.529
same,relative viability,LK-2; first compound 0.003162 µM,0.139
same,relative viability,LK-2; first compound 0.01 µM,0.207
same,relative viability,LK-2; first compound 0.03162 µM,0.196
same,relative viability,LK-2; first compound 0.1 µM,0.182
same,relative viability,NCI-H1563; first compound 0.001 µM,0.546
same,relative viability,NCI-H1563; first compound 0.003162 µM,0.475
same,relative viability,NCI-H1563; first compound 0.01 µM,0.534
same,relative viability,NCI-H1563; first compound 0.03162 µM,0.51
same,relative viability,NCI-H1563; first compound 0.1 µM,0.441
same,relative viability,NCI-H1734; first compound 0.001 µM,0.174
same,relative viability,NCI-H1734; first compound 0.003162 µM,0.168
same,relative viability,NCI-H1734; first compound 0.01 µM,0.208
same,relative viability,NCI-H1734; first compound 0.03162 µM,0.183
same,relative viability,NCI-H1734; first compound 0.1 µM,0.169
same,relative viability,NCI-H1915; first compound 0.001 µM,0.713
same,relative viability,NCI-H1915; first compound 0.003162 µM,0.896
same,relative viability,NCI-H1915; first compound 0.01 µM,1.41
same,relative viability,NCI-H1915; first compound 0.03162 µM,0.553
same,relative viability,NCI-H1915; first compound 0.1 µM,0.759
same,relative viability,NCI-H1993; first compound 0.001 µM,0.928
same,relative viability,NCI-H1993; first compound 0.003162 µM,0.456
same,relative viability,NCI-H1993; first compound 0.01 µM,0.912
same,relative viability,NCI-H1993; first compound 0.03162 µM,0.773
same,relative viability,NCI-H1993; first compound 0.1 µM,0.765
same,relative viability,NCI-H2405; first compound 0.001 µM,0.76
same,relative viability,NCI-H2405; first compound 0.003162 µM,0.575
same,relative viability,NCI-H2405; first compound 0.01 µM,0.756
same,relative viability,NCI-H2405; first compound 0.03162 µM,0.448
same,relative viability,NCI-H2405; first compound 0.1 µM,0.658
same,relative viability,NCI-H460; first compound 0.001 µM,0.0351
same,relative viability,NCI-H460; first compound 0.003162 µM,0.0386
same,relative viability,NCI-H460; first compound 0.01 µM,0.0279
same,relative viability,NCI-H460; first compound 0.03162 µM,0.0273
same,relative viability,NCI-H460; first compound 0.1 µM,0.0271
same,relative viability,NCI-H522; first compound 0.001 µM,1.11
same,relative viability,NCI-H522; first compound 0.003162 µM,1.13
same,relative viability,NCI-H522; first compound 0.01 µM,1.35
same,relative viability,NCI-H522; first compound 0.03162 µM,1.07
same,relative viability,NCI-H522; first compound 0.1 µM,1.15
same,relative viability,NCI-H647; first compound 0.001 µM,0.228
same,relative viability,NCI-H647; first compound 0.003162 µM,0.194
same,relative viability,NCI-H647; first compound 0.01 µM,0.194
same,relative viability,NCI-H647; first compound 0.03162 µM,0.129
same,relative viability,NCI-H647; first compound 0.1 µM,0.161
same,relative viability,NCI-H661; first compound 0.001 µM,1.01
same,relative viability,NCI-H661; first compound 0.003162 µM,0.961
same,relative viability,NCI-H661; first compound 0.03162 µM,1.01
same,relative viability,NCI-H661; first compound 0.1 µM,0.832
same,relative viability,PC-14; first compound 0.001 µM,0.168
same,relative viability,PC-14; first compound 0.003162 µM,0.152
same,relative viability,PC-14; first compound 0.01 µM,0.138
same,relative viability,PC-14; first compound 0.03162 µM,0.123
same,relative viability,PC-14; first compound 0.1 µM,0.153
same,relative viability,SK-MES-1; first compound 0.001 µM,0.784
same,relative viability,SK-MES-1; first compound 0.003162 µM,0.985
same,relative viability,SK-MES-1; first compound 0.01 µM,0.927
same,relative viability,SK-MES-1; first compound 0.03162 µM,0.672
same,relative viability,SK-MES-1; first compound 0.1 µM,0.626
